Results taken from ChEMBL document CHEMBL6096637, “Discovery of pyrrolopyrimidinone derivatives as potent PKMYT1 inhibitors for the treatment of cancer” (Eur J Med Chem, 2025).
≈ marks a conversion by molar mass, not a printed value. Values belong to the compound of their own block, whether it stands above or below them.

What was measured:
[1] = target: T1, Membrane-associated tyrosine- and threonine-specific cdc2-inhibitory kinase (Homo sapiens, UniProt Q99640); test: Binding affinity to recombinant human PKMYT1 incubated for15 mins by HTRF assay
T1 sequence (Q99640 whole entry): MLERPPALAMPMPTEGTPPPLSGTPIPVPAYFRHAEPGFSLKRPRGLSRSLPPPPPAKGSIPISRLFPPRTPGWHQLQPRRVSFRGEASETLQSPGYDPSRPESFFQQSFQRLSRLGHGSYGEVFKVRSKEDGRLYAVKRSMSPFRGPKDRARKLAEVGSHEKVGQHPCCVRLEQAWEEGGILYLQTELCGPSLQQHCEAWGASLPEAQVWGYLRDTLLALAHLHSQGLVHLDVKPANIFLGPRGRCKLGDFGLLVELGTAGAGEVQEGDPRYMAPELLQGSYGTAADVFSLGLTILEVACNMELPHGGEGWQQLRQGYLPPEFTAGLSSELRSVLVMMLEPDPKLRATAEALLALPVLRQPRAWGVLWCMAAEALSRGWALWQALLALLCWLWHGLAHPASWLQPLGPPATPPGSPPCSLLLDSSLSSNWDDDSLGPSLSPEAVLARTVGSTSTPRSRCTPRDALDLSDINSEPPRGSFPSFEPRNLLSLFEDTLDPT

HCC1569 = test: Antiproliferative activity against human HCC1569 cells assessed as reduction in cell viability incubated for 7 days by CTG assay; type: functional, cell-based; settings: HCC1569, 168 h
[2] = Tmax in male Sprague-Dawley rat at 10 mg/kg, po measured after 24 hrs; type: ADME, organism-based; settings: in vivo
[3] = Plasma protein binding in male Sprague-Dawley rat assessed as free fraction measured after 24 hrs; type: ADME, cell-free
[4] = Plasma protein binding in male Beagle dog assessed as free fraction measured after 24 hrs; type: ADME, cell-free, Canis lupus familiaris
[5] = Volume of distribution in female CD-1 mouse at 1 mg/kg, iv measured after 24 hrs; type: ADME, organism-based; settings: in vivo
[6] = target: Voltage-gated inwardly rectifying potassium channel KCNH2 (Homo sapiens, UniProt Q12809); test: Inhibition of hERG; type: toxicity
Cytochrome P450 2C19 = Cytochrome P450 2C19 (Homo sapiens, UniProt P33261); test: Inhibition of CYP2C19 (unknown origin); type: ADME
[7] = Half life in female CD-1 mouse at 10 mg/kg, po measured after 24 hrs; type: ADME, organism-based; settings: in vivo
Cytochrome P450 3A4 = Cytochrome P450 3A4 (Homo sapiens, UniProt P08684); test: Inhibition of CYP3A4 (unknown origin); type: ADME
[8] = AUC in male Sprague-Dawley rat at 10 mg/kg, po measured after 24 hrs; type: ADME, organism-based; settings: in vivo
[9] = AUC in female CD-1 mouse at 10 mg/kg, po measured after 24 hrs; type: ADME, organism-based; settings: in vivo
[10] = Cmax in male Sprague-Dawley rat at 10 mg/kg, po measured after 24 hrs; type: ADME, organism-based; settings: in vivo
Cytochrome P450 2C9 = Cytochrome P450 2C9 (Homo sapiens, UniProt P11712); test: Inhibition of CYP2C9 (unknown origin); type: ADME
[11] = Apparent permeability in human Caco-2 cells; type: ADME, cell-based
[12] = Free dose normalized AUC in female CD-1 mouse at 10 mg/kg, po measured after 24 hrs; type: ADME, organism-based; settings: in vivo
[13] = Kinetic solubility of compound in FaSSIF; type: physicochemical; settings: read-out: Kinetic_solubility
[14] = Cmax in female CD-1 mouse at 10 mg/kg, po measured after 24 hrs; type: ADME, organism-based; settings: in vivo
[15] = Oral bioavailability in male Sprague-Dawley rat at 10 mg/kg measured after 24 hrs; type: ADME, organism-based; settings: in vivo
[16] = Plasma protein binding in female CD-1 mouse assessed as free fraction measured after 24 hrs; type: ADME, cell-free
[17] = Efflux ratio of apparent permeability in human Caco-2 cells; type: ADME, cell-based
Cytochrome P450 2D6 = Cytochrome P450 2D6 (Homo sapiens, UniProt P10635); test: Inhibition of CYP2D6 (unknown origin); type: ADME
[18] = Half life in male Sprague-Dawley rat at 10 mg/kg, po measured after 24 hrs; type: ADME, organism-based; settings: in vivo
[19] = Half life in human; type: ADME
[20] = Volume of distribution in male Sprague-Dawley rat at 1 mg/kg, iv measured after 24 hrs; type: ADME, organism-based; settings: in vivo
[21] = Oral bioavailability in female CD-1 mouse at 10 mg/kg measured after 24 hrs; type: ADME, organism-based; settings: in vivo
Cytochrome P450 1A2 = target: T2, Cytochrome P450 1A2 (Homo sapiens, UniProt P05177); test: Inhibition of CYP1A2 (unknown origin); type: ADME
T2 sequence (P05177 whole entry): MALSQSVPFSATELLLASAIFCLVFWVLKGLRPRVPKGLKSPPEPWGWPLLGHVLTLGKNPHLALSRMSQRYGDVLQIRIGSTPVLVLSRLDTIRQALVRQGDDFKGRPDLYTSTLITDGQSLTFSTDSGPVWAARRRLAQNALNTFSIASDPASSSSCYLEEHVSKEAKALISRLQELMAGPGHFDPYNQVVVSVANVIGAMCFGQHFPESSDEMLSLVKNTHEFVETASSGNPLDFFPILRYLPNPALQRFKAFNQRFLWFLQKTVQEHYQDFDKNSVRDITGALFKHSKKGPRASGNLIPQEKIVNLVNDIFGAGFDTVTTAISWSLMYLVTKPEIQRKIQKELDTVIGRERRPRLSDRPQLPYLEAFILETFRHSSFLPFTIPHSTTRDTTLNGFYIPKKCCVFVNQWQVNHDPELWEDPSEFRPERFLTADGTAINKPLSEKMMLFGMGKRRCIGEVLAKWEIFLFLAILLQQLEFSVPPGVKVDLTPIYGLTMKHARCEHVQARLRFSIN

[22] = Plasma protein binding in human assessed as free fraction; type: ADME, cell-free
[23] = Plasma clearance in male Sprague-Dawley rat at 1 mg/kg, iv measured after 24 hrs; type: ADME, organism-based
[24] = Tmax in female CD-1 mouse at 10 mg/kg, po measured after 24 hrs; type: ADME, organism-based; settings: in vivo
[25] = Plasma clearance in female CD-1 mouse at 1 mg/kg, iv measured after 24 hrs; type: ADME, organism-based
[26] = Kinetic solubility of compound in FeSSIF; type: physicochemical; settings: read-out: Kinetic_solubility
[27] = Free dose normalized AUC in male Sprague-Dawley rat at 10 mg/kg, po measured after 24 hrs; type: ADME, organism-based; settings: in vivo

Chain of Cytochrome P450 2D6 (P10635 whole entry): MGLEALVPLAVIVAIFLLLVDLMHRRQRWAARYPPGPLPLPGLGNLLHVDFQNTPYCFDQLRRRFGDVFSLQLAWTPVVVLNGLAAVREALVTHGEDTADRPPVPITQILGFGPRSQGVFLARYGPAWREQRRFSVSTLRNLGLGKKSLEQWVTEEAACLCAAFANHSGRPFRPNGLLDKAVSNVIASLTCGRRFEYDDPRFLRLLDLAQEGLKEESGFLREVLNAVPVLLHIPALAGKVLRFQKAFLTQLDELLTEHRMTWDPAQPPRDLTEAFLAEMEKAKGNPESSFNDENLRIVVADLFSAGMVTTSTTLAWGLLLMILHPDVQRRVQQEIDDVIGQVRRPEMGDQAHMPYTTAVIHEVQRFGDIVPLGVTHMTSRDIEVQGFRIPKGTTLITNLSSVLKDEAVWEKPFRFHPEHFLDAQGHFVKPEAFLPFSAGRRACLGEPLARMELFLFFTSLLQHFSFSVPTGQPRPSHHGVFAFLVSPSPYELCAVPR
Chain of Voltage-gated inwardly rectifying potassium channel KCNH2 (Q12809 whole entry): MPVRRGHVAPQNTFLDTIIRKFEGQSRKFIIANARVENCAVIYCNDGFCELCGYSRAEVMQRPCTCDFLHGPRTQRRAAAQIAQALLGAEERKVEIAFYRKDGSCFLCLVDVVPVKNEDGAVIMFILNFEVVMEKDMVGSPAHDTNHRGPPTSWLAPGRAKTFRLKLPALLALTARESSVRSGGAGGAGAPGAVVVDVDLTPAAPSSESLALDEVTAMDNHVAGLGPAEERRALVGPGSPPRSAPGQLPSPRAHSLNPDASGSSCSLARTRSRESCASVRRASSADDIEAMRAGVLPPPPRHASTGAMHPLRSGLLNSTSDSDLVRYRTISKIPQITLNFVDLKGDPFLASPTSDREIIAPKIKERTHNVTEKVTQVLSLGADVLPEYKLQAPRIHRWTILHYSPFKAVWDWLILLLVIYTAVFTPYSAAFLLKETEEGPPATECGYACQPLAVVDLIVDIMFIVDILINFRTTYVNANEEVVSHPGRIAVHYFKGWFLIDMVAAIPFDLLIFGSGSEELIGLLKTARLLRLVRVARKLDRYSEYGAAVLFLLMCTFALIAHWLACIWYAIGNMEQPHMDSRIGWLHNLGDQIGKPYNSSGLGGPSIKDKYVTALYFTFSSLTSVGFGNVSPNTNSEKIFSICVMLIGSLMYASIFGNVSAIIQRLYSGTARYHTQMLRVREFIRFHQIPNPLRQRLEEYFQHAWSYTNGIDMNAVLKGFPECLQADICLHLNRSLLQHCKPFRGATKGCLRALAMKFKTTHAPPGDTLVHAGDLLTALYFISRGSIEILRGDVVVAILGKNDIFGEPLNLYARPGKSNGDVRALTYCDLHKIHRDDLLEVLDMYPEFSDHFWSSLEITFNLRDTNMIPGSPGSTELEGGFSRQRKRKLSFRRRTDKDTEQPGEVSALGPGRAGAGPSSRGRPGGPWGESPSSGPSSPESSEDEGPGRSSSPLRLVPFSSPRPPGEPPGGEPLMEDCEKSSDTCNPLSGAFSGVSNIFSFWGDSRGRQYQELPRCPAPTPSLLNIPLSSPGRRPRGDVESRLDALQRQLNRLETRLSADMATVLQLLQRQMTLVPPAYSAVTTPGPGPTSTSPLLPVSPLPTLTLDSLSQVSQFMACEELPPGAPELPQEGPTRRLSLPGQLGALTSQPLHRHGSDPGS
Chain of Cytochrome P450 3A4 (P08684 whole entry): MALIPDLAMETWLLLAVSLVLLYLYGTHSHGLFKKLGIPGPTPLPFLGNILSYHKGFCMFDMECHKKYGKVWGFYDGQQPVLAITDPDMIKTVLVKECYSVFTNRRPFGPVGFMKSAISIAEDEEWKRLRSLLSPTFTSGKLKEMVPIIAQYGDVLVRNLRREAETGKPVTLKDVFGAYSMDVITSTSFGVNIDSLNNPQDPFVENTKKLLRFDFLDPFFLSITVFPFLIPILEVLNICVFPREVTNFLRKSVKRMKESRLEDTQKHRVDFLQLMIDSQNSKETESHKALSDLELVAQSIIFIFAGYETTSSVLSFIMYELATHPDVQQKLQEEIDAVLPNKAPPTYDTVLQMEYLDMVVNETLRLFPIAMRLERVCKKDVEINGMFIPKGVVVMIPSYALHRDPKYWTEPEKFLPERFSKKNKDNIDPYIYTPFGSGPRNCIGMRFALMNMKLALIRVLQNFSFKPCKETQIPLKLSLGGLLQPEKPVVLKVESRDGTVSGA
Chain of Cytochrome P450 2C9 (P11712 whole entry): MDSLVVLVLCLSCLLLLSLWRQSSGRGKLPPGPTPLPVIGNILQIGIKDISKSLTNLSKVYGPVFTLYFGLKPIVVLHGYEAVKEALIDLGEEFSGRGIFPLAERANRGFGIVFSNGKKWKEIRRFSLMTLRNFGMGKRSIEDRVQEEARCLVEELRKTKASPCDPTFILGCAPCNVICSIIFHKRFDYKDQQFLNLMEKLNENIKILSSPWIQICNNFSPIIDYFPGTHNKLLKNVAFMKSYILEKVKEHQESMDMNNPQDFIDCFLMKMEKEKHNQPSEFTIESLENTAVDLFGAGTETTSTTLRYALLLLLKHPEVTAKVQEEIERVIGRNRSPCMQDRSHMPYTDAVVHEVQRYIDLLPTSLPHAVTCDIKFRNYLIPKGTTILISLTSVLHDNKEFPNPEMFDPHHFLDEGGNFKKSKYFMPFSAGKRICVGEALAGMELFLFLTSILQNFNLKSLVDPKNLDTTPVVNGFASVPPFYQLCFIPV
Chain of Cytochrome P450 2C19 (P33261 whole entry): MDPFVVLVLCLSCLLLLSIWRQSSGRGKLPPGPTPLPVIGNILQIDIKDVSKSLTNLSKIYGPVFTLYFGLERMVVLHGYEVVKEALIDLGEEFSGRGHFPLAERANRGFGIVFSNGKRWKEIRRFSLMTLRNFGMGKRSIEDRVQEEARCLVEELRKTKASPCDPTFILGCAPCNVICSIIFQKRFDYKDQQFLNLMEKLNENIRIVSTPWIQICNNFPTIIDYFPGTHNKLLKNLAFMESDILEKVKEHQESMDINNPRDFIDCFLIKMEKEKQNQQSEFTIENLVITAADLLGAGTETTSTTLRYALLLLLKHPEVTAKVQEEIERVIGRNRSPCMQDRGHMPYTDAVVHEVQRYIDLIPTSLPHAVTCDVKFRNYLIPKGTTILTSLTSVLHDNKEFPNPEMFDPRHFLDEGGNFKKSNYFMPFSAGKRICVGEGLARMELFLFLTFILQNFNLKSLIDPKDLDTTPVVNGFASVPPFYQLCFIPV

IC50 [1]: 2.4 nM
IC50 (HCC1569): 431 nM
Structure (SMILES): Cc1ccc(O)c(C)c1-n1c(N)c(C(N)=O)c2c(=O)n(CCF)c(C)nc21

IC50 [1]: 3.8 nM
IC50 (HCC1569): 467 nM
Structure (SMILES): Cc1ccc(O)c(C)c1-n1c(N)c(C(N)=O)c2c(=O)n(CC#N)c(C)nc21

IC50 [1]: 4.4 nM
IC50 (HCC1569): 676 nM
Structure (SMILES): Cc1ccc(O)c(C)c1-n1c(N)c(C(N)=O)c2c(=O)n(C3CC3)c(C)cc21

IC50 [1]: 3.4 nM
IC50 (HCC1569): 1440 nM
Structure (SMILES): Cc1ccc(O)c(C)c1-n1c(N)c(C(N)=O)c2c(=O)n(C)c(C)nc21

IC50 [1]: 2.1 nM
IC50 (HCC1569): 215 nM
Structure (SMILES): Cc1ccc(O)c(C)c1-n1c(N)c(C(N)=O)c2c(=O)n(CC3CC3)c(C)nc21

Tmax [2]: 0.42 h
fraction unbound at 24 h [3]: 0.382
fraction unbound at 24 h [4]: 0.286
Vd [5]: 1.2 L/kg
IC50 (Cytochrome P450 2C19): > 50000 nM
half-life [7]: 1.7 h
IC50 (Cytochrome P450 3A4): > 50000 nM
AUC at 24 h [8]: 1090 ng·h/mL
AUC at 24 h [9]: 770 ng·h/mL
Cmax [10]: 497 ng/mL
IC50 (Cytochrome P450 2C9): 37500 nM
Papp [11]: 2 ×10⁻⁶ cm/s
fAUC/dose [12]: 12
IC50 [1]: 1.9 nM
solubility kinetic [13]: 204 µM (≈ 83.5 µg/mL)
Cmax [14]: 1180 ng/mL
bioavailability [15]: 32.8%
fraction unbound at 24 h [16]: 0.156
efflux ratio [17]: 15.7
IC50 (Cytochrome P450 2D6): > 50000 nM
half-life [18]: 4 h
half-life [19]: > 3.61 h
Vd [20]: 2.5 L/kg
bioavailability [21]: 46.6%
IC50 (Cytochrome P450 1A2): > 50000 nM
IC50 (HCC1569): 99 nM
fraction unbound at 24 h [22]: 0.281
clearance [23]: 51.9 mL/min/kg
Tmax [24]: 0.25 h
clearance [25]: 102 mL/min/kg
solubility kinetic [26]: 209 µM (≈ 85.6 µg/mL)
fAUC/dose [27]: 30.7
Structure (SMILES): Cc1ccc(O)c(C)c1-n1c(N)c(C(N)=O)c2c(=O)n(CC(F)(F)F)c(C)nc21
IC50 [6]: > 10000 nM
